From paper PMC5660078, “Cysteinyl-tRNA synthetase governs cysteine polysulfidation and mitochondrial bioenergetics” (Nature Communications, 2017)

Assays:
human CARS2 = biological target: T1, human CARS2 (Homo sapiens, UniProt Q9HA77); assay: DNPH derivatization, LC-ESI-MS/MS of bound PLP; type: binding; settings: 37 °C, 1 h, 0-100 µM PLP
T1 sequence (Q9HA77 1-564): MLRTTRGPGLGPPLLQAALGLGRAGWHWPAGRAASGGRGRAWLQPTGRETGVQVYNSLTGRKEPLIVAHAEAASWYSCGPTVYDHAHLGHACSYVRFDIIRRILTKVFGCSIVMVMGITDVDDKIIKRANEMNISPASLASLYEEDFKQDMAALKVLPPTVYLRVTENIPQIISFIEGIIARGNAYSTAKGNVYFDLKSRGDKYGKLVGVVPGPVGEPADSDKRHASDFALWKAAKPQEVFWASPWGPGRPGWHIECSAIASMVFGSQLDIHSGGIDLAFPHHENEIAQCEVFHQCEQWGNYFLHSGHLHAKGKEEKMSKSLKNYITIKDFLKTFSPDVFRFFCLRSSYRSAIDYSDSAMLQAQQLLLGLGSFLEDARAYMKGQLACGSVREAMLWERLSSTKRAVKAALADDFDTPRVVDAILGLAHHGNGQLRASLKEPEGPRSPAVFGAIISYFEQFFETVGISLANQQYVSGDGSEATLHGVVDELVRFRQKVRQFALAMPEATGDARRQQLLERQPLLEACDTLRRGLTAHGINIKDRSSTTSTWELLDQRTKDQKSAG

mouse CARS1 = biological target: T2, mouse CARS1 (Mus musculus, UniProt Q9ER72); assay: HPE-IAM labeling LC-MS/MS of CysSSH and CysSSSH; type: biochemical; settings: 25 µM L-cysteine, 100 µM PLP, 37 °C, 2 h
T2 sequence (Q9ER72 2-831): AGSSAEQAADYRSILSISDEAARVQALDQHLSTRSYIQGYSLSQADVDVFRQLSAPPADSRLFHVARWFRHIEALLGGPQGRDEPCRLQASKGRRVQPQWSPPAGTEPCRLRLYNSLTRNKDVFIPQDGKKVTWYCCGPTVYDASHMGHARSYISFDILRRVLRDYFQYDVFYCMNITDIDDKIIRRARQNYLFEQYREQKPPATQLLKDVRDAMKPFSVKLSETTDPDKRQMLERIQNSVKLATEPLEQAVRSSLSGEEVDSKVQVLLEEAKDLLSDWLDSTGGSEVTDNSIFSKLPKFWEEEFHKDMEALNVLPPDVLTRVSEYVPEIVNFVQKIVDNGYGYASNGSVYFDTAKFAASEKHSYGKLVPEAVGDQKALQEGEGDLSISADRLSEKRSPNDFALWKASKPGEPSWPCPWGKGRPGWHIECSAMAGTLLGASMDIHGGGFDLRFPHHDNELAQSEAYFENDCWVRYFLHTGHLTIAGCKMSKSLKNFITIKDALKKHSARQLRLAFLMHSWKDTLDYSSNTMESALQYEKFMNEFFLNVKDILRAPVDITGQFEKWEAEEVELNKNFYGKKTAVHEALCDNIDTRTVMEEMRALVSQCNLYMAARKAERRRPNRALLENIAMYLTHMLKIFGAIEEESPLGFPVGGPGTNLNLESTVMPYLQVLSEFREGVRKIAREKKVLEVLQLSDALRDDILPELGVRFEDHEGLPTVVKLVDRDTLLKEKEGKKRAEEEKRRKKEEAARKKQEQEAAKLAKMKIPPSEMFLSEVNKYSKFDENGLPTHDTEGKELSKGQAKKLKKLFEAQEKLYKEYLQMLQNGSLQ

EcCARS = biological target: T3, EcCARS (Escherichia coli, UniProt P21888); assay: HPE-IAM labeling LC-ESI-MS/MS of CysSSH formed, Michaelis-Menten fit; type: biochemical; settings: persulfide synthase reaction; 50 mM HEPES pH 7.5, 25 mM KCl, 15 mM MgCl2, 37 °C, 30 s
T3 construct: gene cysS
T3 sequence (P21888 1-461): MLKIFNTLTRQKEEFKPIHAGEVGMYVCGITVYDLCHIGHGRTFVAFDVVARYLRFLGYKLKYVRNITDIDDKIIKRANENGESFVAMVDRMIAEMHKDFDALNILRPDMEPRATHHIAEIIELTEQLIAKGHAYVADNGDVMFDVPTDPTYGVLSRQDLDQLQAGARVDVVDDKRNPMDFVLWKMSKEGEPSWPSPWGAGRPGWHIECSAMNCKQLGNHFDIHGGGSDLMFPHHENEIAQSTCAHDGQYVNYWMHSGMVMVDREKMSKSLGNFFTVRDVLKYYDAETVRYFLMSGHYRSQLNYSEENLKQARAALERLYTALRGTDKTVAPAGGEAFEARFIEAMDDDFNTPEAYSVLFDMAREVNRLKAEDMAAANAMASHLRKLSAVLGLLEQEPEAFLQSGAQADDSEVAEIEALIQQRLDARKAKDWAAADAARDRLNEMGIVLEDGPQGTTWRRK

Row | Compound | DNPH derivatization, LC-ESI-MS/MS of bound PLP (human CARS2) | HPE-IAM labeling LC-MS/MS of CysSSH and CysSSSH (mouse CARS1) | Km (EcCARS)
1 | Cc1ncc(COP(=O)(O)O)c(C=O)c1O [pyridoxal phosphate] | Precisely quantitative analysis for PLP bound to human CRAS2 | PLP-dependent CysSSH and CysSSSH biosynthesis by mouse CARS1 and human CARS2 | 
2 | N[C@@H](CS)C(=O)O [L-cysteine] |  |  | EcCARS is very efficient in producing CysSSH
